Laboratory results as given in ChEMBL document CHEMBL1201862, “PubChem BioAssay data set” (2004).
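Step 1: Grow cells in 96-well plates. Step 2: Expose to compound for 48 hours at 5 concentrations. Step 3: Interpolate endpoints linearly; if unreached, use highest concentration. Abbreviation: GI50, concentration required for 50% inhibition of growth.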 Calls of active or inactive are those of the source. Cut-off read from the data, not from the text of the source: active = GI50 up to about 1.1 µM and inactive = higher.

Experiments:
Experiment in all cases: NCI tumour cell line growth inhibition, 48 h
RPMI-8226 = test system: RPMI-8226
K562 = test system: K562
IGROV-1 = test system: IGROV-1
U-251 = test system: U-251
MDA-N = test system: MDA-N
OVCAR-3 = test system: OVCAR-3
SR = test system: SR
786-0 = test system: 786-0
SNB-19 = test system: SNB-19
UACC-62 = test system: UACC-62
OVCAR-8 = test system: OVCAR-8
UACC-257 = test system: UACC-257
LOX IMVI = test system: LOX IMVI
EKVX = test system: EKVX
HCT-15 = test system: HCT-15
DU-145 = test system: DU-145
HCT-116 = test system: HCT-116
SK-MEL-2 = test system: SK-MEL-2
HT-29 = test system: HT-29
NCI-H522 = test system: NCI-H522
ACHN = test system: ACHN
HL-60 = test system: HL-60
UO-31 = test system: UO-31
TK-10 = test system: TK-10
T47D = test system: T47D
SF-539 = test system: SF-539
OVCAR-4 = test system: OVCAR-4
SK-MEL-5 = test system: SK-MEL-5
SN12C = test system: SN12C
NCI-H226 = test system: NCI-H226
HOP-62 = test system: HOP-62
Malme-3M = test system: Malme-3M
KM12 = test system: KM12
A498 = test system: A498
A549 = test system: A549
SF-295 = test system: SF-295
MDA-MB-231 = test system: MDA-MB-231
NCI-H23 = test system: NCI-H23
CAKI-1 = test system: CAKI-1
SNB-75 = test system: SNB-75
Hs-578T = test system: Hs-578T
HOP-92 = test system: HOP-92
M14 = test system: M14
COLO 205 = test system: COLO 205
SF-268 = test system: SF-268
SK-MEL-28 = test system: SK-MEL-28
NCI/ADR-RES = test system: NCI/ADR-RES
MDA-MB-435 = test system: MDA-MB-435
PC-3 = test system: PC-3
MCF7 = test system: MCF7
MOLT-4 = test system: MOLT-4
NCI-H460 = test system: NCI-H460
SW-620 = test system: SW-620
CCRF-CEM = test system: CCRF-CEM
OVCAR-5 = test system: OVCAR-5
SK-OV-3 = test system: SK-OV-3
HCC 2998 = test system: HCC 2998
RXF 393 = test system: RXF 393
BT-549 = test system: BT-549

CC(C)(Br)C(=O)/C=C/c1ccccc1
GI50 (RPMI-8226): 0.925 µM (active)
GI50 (K562): 1.55 µM (inactive)
GI50 (IGROV-1): 0.581 µM (active)
GI50 (U-251): 6.95 µM (inactive)
GI50 (MDA-N): 3.5 µM (inactive)
GI50 (OVCAR-3): 8.17 µM (inactive)
GI50 (SR): 1.98 µM (inactive)
GI50 (786-0): 0.485 µM (active)
GI50 (SNB-19): 22 µM (inactive)
GI50 (UACC-62): 5.73 µM (inactive)
GI50 (OVCAR-8): 2.13 µM (inactive)
GI50 (UACC-257): 14.1 µM (inactive)
GI50 (LOX IMVI): 1.32 µM (inactive)
GI50 (EKVX): 7.62 µM (inactive)
GI50 (HCT-15): 1.97 µM
GI50 (DU-145): 5.71 µM (inactive)
GI50 (HCT-116): 0.625 µM (active)
GI50 (SK-MEL-2): 1.83 µM (inactive)
GI50 (HT-29): 4.23 µM (inactive)
GI50 (NCI-H522): 0.136 µM (active)
GI50 (ACHN): 2.55 µM (inactive)
GI50 (HL-60): 3.91 µM (inactive)
GI50 (UO-31): 1.84 µM (inactive)
GI50 (TK-10): 10.6 µM (inactive)
GI50 (T47D): 2.47 µM (inactive)
GI50 (SF-539): 8.13 µM (inactive)
GI50 (OVCAR-4): 2.3 µM (inactive)
GI50 (SK-MEL-5): 11.6 µM (inactive)
GI50 (SN12C): 6.21 µM (inactive)
GI50 (NCI-H226): 5 µM (inactive)
GI50 (HOP-62): 4.58 µM (inactive)
GI50 (Malme-3M): 2.62 µM (inactive)
GI50 (KM12): 13.1 µM (inactive)
GI50 (A498): 18.7 µM (inactive)
GI50 (A549): 14.8 µM (inactive)
GI50 (SF-295): 16.8 µM (inactive)
GI50 (MDA-MB-231): 8.79 µM (inactive)
GI50 (NCI-H23): 1.94 µM (inactive)
GI50 (CAKI-1): 6.12 µM (inactive)
GI50 (SNB-75): 16.1 µM (inactive)
GI50 (Hs-578T): 11.5 µM (inactive)
GI50 (HOP-92): 4.35 µM (inactive)
GI50 (M14): 1.56 µM (inactive)
GI50 (COLO 205): 8.24 µM (inactive)
GI50 (SF-268): 10.6 µM (inactive)
GI50 (SK-MEL-28): 14.9 µM (inactive)
GI50 (NCI/ADR-RES): 17.6 µM (inactive)
GI50 (MDA-MB-435): 5.46 µM (inactive)
GI50 (PC-3): 7.69 µM (inactive)
GI50 (MCF7): 3.56 µM (inactive)
GI50 (MOLT-4): 1.41 µM (inactive)
GI50 (NCI-H460): 16.3 µM (inactive)
GI50 (SW-620): 2.39 µM (inactive)
GI50 (CCRF-CEM): 0.22 µM (active)
GI50 (OVCAR-5): 6.56 µM (inactive)
GI50 (SK-OV-3): 25.6 µM (inactive)

O=C1c2ccccc2C(=O)N1CC1S(=O)(=O)OCCOS1(=O)=O
GI50 (RPMI-8226): > 100 µM (inactive)
GI50 (K562): > 100 µM (inactive)
GI50 (IGROV-1): > 100 µM (inactive)
GI50 (U-251): > 100 µM (inactive)
GI50 (MDA-N): > 100 µM (inactive)
GI50 (OVCAR-3): > 100 µM (inactive)
GI50 (SR): 44.1 µM (inactive)
GI50 (786-0): > 100 µM (inactive)
GI50 (SNB-19): > 100 µM (inactive)
GI50 (UACC-62): > 100 µM (inactive)
GI50 (OVCAR-8): > 100 µM (inactive)
GI50 (UACC-257): > 100 µM (inactive)
GI50 (LOX IMVI): > 100 µM (inactive)
GI50 (EKVX): > 100 µM (inactive)
GI50 (HCT-15): > 100 µM
GI50 (DU-145): > 100 µM (inactive)
GI50 (HCT-116): > 100 µM (inactive)
GI50 (HT-29): > 100 µM (inactive)
GI50 (NCI-H522): > 100 µM (inactive)
GI50 (ACHN): > 100 µM (inactive)
GI50 (HL-60): > 100 µM (inactive)
GI50 (UO-31): > 100 µM (inactive)
GI50 (TK-10): > 100 µM (inactive)
GI50 (T47D): > 100 µM (inactive)
GI50 (SF-539): 98.4 µM (inactive)
GI50 (HCC 2998): > 100 µM (inactive)
GI50 (OVCAR-4): > 100 µM (inactive)
GI50 (SK-MEL-5): > 100 µM (inactive)
GI50 (SN12C): > 100 µM (inactive)
GI50 (NCI-H226): > 100 µM (inactive)
GI50 (HOP-62): > 100 µM (inactive)
GI50 (Malme-3M): > 100 µM (inactive)
GI50 (A498): > 100 µM (inactive)
GI50 (A549): > 100 µM (inactive)
GI50 (SF-295): > 100 µM (inactive)
GI50 (MDA-MB-231): > 100 µM (inactive)
GI50 (NCI-H23): > 100 µM (inactive)
GI50 (CAKI-1): > 100 µM (inactive)
GI50 (SNB-75): > 100 µM (inactive)
GI50 (Hs-578T): > 100 µM (inactive)
GI50 (HOP-92): > 100 µM (inactive)
GI50 (M14): > 100 µM (inactive)
GI50 (COLO 205): > 100 µM (inactive)
GI50 (SF-268): > 100 µM (inactive)
GI50 (SK-MEL-28): > 100 µM (inactive)
GI50 (NCI/ADR-RES): > 100 µM (inactive)
GI50 (MDA-MB-435): > 100 µM (inactive)
GI50 (PC-3): > 100 µM (inactive)
GI50 (MCF7): > 100 µM (inactive)
GI50 (MOLT-4): > 100 µM (inactive)
GI50 (NCI-H460): > 100 µM (inactive)
GI50 (RXF 393): > 100 µM (inactive)
GI50 (SW-620): > 100 µM (inactive)
GI50 (CCRF-CEM): > 100 µM (inactive)
GI50 (OVCAR-5): > 100 µM (inactive)
GI50 (SK-OV-3): > 100 µM (inactive)

O=C(CCCN1CCC2(CC1)OC(=O)N(c1ccccc1)C2=O)c1ccccc1
GI50 (RPMI-8226): > 100 µM (inactive)
GI50 (K562): > 100 µM (inactive)
GI50 (IGROV-1): > 100 µM (inactive)
GI50 (U-251): > 100 µM (inactive)
GI50 (MDA-N): > 100 µM (inactive)
GI50 (OVCAR-3): > 100 µM (inactive)
GI50 (SR): > 100 µM (inactive)
GI50 (786-0): > 100 µM (inactive)
GI50 (SNB-19): > 100 µM (inactive)
GI50 (UACC-62): > 100 µM (inactive)
GI50 (OVCAR-8): > 100 µM (inactive)
GI50 (UACC-257): > 100 µM (inactive)
GI50 (LOX IMVI): > 100 µM (inactive)
GI50 (EKVX): > 100 µM (inactive)
GI50 (HCT-15): > 100 µM
GI50 (DU-145): > 100 µM (inactive)
GI50 (HCT-116): > 100 µM (inactive)
GI50 (SK-MEL-2): > 100 µM (inactive)
GI50 (HT-29): > 100 µM (inactive)
GI50 (NCI-H522): > 100 µM (inactive)
GI50 (ACHN): > 100 µM (inactive)
GI50 (HL-60): > 100 µM (inactive)
GI50 (UO-31): 27.8 µM (inactive)
GI50 (TK-10): > 100 µM (inactive)
GI50 (T47D): > 100 µM (inactive)
GI50 (SF-539): > 100 µM (inactive)
GI50 (HCC 2998): > 100 µM (inactive)
GI50 (OVCAR-4): > 100 µM (inactive)
GI50 (SK-MEL-5): > 100 µM (inactive)
GI50 (SN12C): > 100 µM (inactive)
GI50 (NCI-H226): > 100 µM (inactive)
GI50 (HOP-62): > 100 µM (inactive)
GI50 (Malme-3M): > 100 µM (inactive)
GI50 (KM12): > 100 µM (inactive)
GI50 (A498): > 100 µM (inactive)
GI50 (A549): > 100 µM (inactive)
GI50 (SF-295): > 100 µM (inactive)
GI50 (MDA-MB-231): 35.5 µM (inactive)
GI50 (NCI-H23): > 100 µM (inactive)
GI50 (CAKI-1): > 100 µM (inactive)
GI50 (SNB-75): > 100 µM (inactive)
GI50 (Hs-578T): > 100 µM (inactive)
GI50 (HOP-92): > 100 µM (inactive)
GI50 (M14): > 100 µM (inactive)
GI50 (COLO 205): > 100 µM (inactive)
GI50 (SF-268): > 100 µM (inactive)
GI50 (SK-MEL-28): > 100 µM (inactive)
GI50 (NCI/ADR-RES): > 100 µM (inactive)
GI50 (MDA-MB-435): > 100 µM (inactive)
GI50 (PC-3): > 100 µM (inactive)
GI50 (MCF7): > 100 µM (inactive)
GI50 (MOLT-4): > 100 µM (inactive)
GI50 (NCI-H460): > 100 µM (inactive)
GI50 (RXF 393): > 100 µM (inactive)
GI50 (SW-620): > 100 µM (inactive)
GI50 (CCRF-CEM): > 100 µM (inactive)
GI50 (OVCAR-5): > 100 µM (inactive)
GI50 (SK-OV-3): > 100 µM (inactive)

CN(C)c1ccc(/C=C2\N=C(N/N=C/c3ccccc3O)NC2=O)cc1
GI50 (RPMI-8226): 38.6 µM (inactive)
GI50 (MDA-N): 39.1 µM (inactive)
GI50 (SNB-19): 41.9 µM (inactive)
GI50 (DU-145): 32.3 µM (inactive)
GI50 (HT-29): 34.3 µM (inactive)
GI50 (TK-10): 25.6 µM (inactive)
GI50 (HCC 2998): 36.9 µM (inactive)
GI50 (SN12C): 36.7 µM (inactive)
GI50 (NCI-H226): 20.5 µM (inactive)
GI50 (HOP-62): 22.5 µM (inactive)
GI50 (A498): 25.1 µM (inactive)
GI50 (SNB-75): 31.2 µM (inactive)
GI50 (Hs-578T): 68.9 µM (inactive)
GI50 (HOP-92): 24 µM (inactive)
GI50 (COLO 205): 31.3 µM (inactive)
GI50 (SF-268): 34.4 µM (inactive)
GI50 (SK-MEL-28): 25.1 µM (inactive)
GI50 (MDA-MB-435): 32.8 µM (inactive)
GI50 (BT-549): 44.7 µM (inactive)
GI50 (RXF 393): 23.9 µM (inactive)
GI50 (OVCAR-5): 49.9 µM (inactive)
